According to ChEMBL document CHEMBL4414672, “Synthesis of certain benzothieno[3,2-d]pyrimidine derivatives as a selective SIRT2 inhibitors” (Eur J Med Chem, 2020):

What was measured:
Format in all cases: functional
A498 = experiment: Growth inhibition of human A498 cells at 10^-5 M incubated for 48 hrs by sulforhodamine B assay; conditions: A498, 48 h, read-out: GI
SF-295 = experiment: Growth inhibition of human SF295 cells at 10^-5 M incubated for 48 hrs by sulforhodamine B assay; conditions: SF-295, 48 h, read-out: GI
PC-3 = experiment: Growth inhibition of human PC3 cells at 10^-5 M incubated for 48 hrs by sulforhodamine B assay; conditions: PC-3, 48 h, read-out: GI
SR = experiment: Growth inhibition of human SR cells at 10^-5 M incubated for 48 hrs by sulforhodamine B assay; conditions: read-out: GI
UACC-257 = experiment: Growth inhibition of human UACC257 cells at 10^-5 M incubated for 48 hrs by sulforhodamine B assay; conditions: UACC-257, 48 h, read-out: GI
MDA-MB-468 = experiment: Growth inhibition of human MDA-MB-468 cells at 10^-5 M incubated for 48 hrs by sulforhodamine B assay; conditions: MDA-MB-468, 48 h, read-out: GI
ACHN = experiment: Growth inhibition of human ACHN cells at 10^-5 M incubated for 48 hrs by sulforhodamine B assay; conditions: read-out: GI
Hs-578T = experiment: Growth inhibition of human Hs 578T cells at 10^-5 M incubated for 48 hrs by sulforhodamine B assay; conditions: read-out: GI
MDA-MB-435 = experiment: Growth inhibition of human MDA-MB-435 cells at 10^-5 M incubated for 48 hrs by sulforhodamine B assay; conditions: MDA-MB-435, 48 h, read-out: GI
CCRF-CEM = experiment: Growth inhibition of human CCRF-CEM cells at 10^-5 M incubated for 48 hrs by sulforhodamine B assay; conditions: read-out: GI
TK-10 = experiment: Growth inhibition of human TK10 cells at 10^-5 M incubated for 48 hrs by sulforhodamine B assay; conditions: TK-10, 48 h, read-out: GI
COLO 205 = experiment: Growth inhibition of human COLO205 cells at 10^-5 M incubated for 48 hrs by sulforhodamine B assay; conditions: COLO 205, 48 h, read-out: GI
SNB-19 = experiment: Growth inhibition of human SNB19 cells at 10^-5 M incubated for 48 hrs by sulforhodamine B assay; conditions: SNB-19, 48 h, read-out: GI
HT-29 = experiment: Growth inhibition of human HT-29 cells at 10^-5 M incubated for 48 hrs by sulforhodamine B assay; conditions: HT-29, 48 h, read-out: GI
NCI-H522 = experiment: Growth inhibition of human NCI-H522 cells at 10^-5 M incubated for 48 hrs by sulforhodamine B assay; conditions: NCI-H522, 48 h, read-out: GI
SW-620 = experiment: Growth inhibition of human SW620 cells at 10^-5 M incubated for 48 hrs by sulforhodamine B assay; conditions: SW-620, 48 h, read-out: GI
NCI-H226 = experiment: Growth inhibition of human NCI-H226 cells at 10^-5 M incubated for 48 hrs by sulforhodamine B assay; conditions: NCI-H226, 48 h, read-out: GI
MCF7 = experiment: Growth inhibition of human MCF7 cells at 10^-5 M incubated for 48 hrs by sulforhodamine B assay; conditions: MCF7, 48 h, read-out: GI
MOLT-4 = experiment: Growth inhibition of human MOLT4 cells at 10^-5 M incubated for 48 hrs by sulforhodamine B assay; conditions: MOLT-4, 48 h, read-out: GI
T47D = experiment: Growth inhibition of human T47D cells at 10^-5 M incubated for 48 hrs by sulforhodamine B assay; conditions: read-out: GI
DU-145 = experiment: Growth inhibition of human DU145 cells at 10^-5 M incubated for 48 hrs by sulforhodamine B assay; conditions: DU-145, 48 h, read-out: GI
A549 = experiment: Growth inhibition of human A549/ATCC cells at 10^-5 M incubated for 48 hrs by sulforhodamine B assay; conditions: A549, 48 h, read-out: GI
UACC-62 = experiment: Growth inhibition of human UACC62 cells at 10^-5 M incubated for 48 hrs by sulforhodamine B assay; conditions: UACC-62, 48 h, read-out: GI
SF-539 = experiment: Growth inhibition of human SF539 cells at 10^-5 M incubated for 48 hrs by sulforhodamine B assay; conditions: SF-539, 48 h, read-out: GI
LOX IMVI = experiment: Growth inhibition of human LOXIMVI cells at 10^-5 M incubated for 48 hrs by sulforhodamine B assay; conditions: read-out: GI
IGROV-1 = experiment: Growth inhibition of human IGROV1 cells at 10^-5 M incubated for 48 hrs by sulforhodamine B assay; conditions: IGROV-1, 48 h, read-out: GI
Malme-3M = experiment: Growth inhibition of human MALME-3M cells at 10^-5 M incubated for 48 hrs by sulforhodamine B assay; conditions: read-out: GI
BT-549 = experiment: Growth inhibition of human BT549 cells at 10^-5 M incubated for 48 hrs by sulforhodamine B assay; conditions: BT-549, 48 h, read-out: GI
SN12C = experiment: Growth inhibition of human SN12C cells at 10^-5 M incubated for 48 hrs by sulforhodamine B assay; conditions: read-out: GI
SK-MEL-28 = experiment: Growth inhibition of human SK-MEL-28 cells at 10^-5 M incubated for 48 hrs by sulforhodamine B assay; conditions: SK-MEL-28, 48 h, read-out: GI
OVCAR-5 = experiment: Growth inhibition of human OVCAR5 cells at 10^-5 M incubated for 48 hrs by sulforhodamine B assay; conditions: OVCAR-5, 48 h, read-out: GI
OVCAR-3 = experiment: Growth inhibition of human OVCAR3 cells at 10^-5 M incubated for 48 hrs by sulforhodamine B assay; conditions: OVCAR-3, 48 h, read-out: GI
EKVX = experiment: Growth inhibition of human EKVX cells at 10^-5 M incubated for 48 hrs by sulforhodamine B assay; conditions: read-out: GI
OVCAR-4 = experiment: Growth inhibition of human OVCAR4 cells at 10^-5 M incubated for 48 hrs by sulforhodamine B assay; conditions: OVCAR-4, 48 h, read-out: GI
HCC 2998 = experiment: Growth inhibition of human HCC2998 cells at 10^-5 M incubated for 48 hrs by sulforhodamine B assay; conditions: HCC 2998, 48 h, read-out: GI
CAKI-1 = experiment: Growth inhibition of human Caki1 cells at 10^-5 M incubated for 48 hrs by sulforhodamine B assay; conditions: CAKI-1, 48 h, read-out: GI
NCI-H322M = experiment: Growth inhibition of human NCI-H322M cells at 10^-5 M incubated for 48 hrs by sulforhodamine B assay; conditions: read-out: GI
SNB-75 = experiment: Growth inhibition of human SNB75 cells at 10^-5 M incubated for 48 hrs by sulforhodamine B assay; conditions: SNB-75, 48 h, read-out: GI
HCT-15 = experiment: Growth inhibition of human HCT15 cells at 10^-5 M incubated for 48 hrs by sulforhodamine B assay; conditions: HCT-15, 48 h, read-out: GI

Row | SMILES | inhibition of growth at 10 µM (A498) [%] | inhibition of growth at 10 µM (SF-295) [%] | inhibition of growth at 10 µM (PC-3) [%] | inhibition of growth at 10 µM (SR) [%] | inhibition of growth at 10 µM (UACC-257) [%] | inhibition of growth at 10 µM (MDA-MB-468) [%] | inhibition of growth at 10 µM (ACHN) [%] | inhibition of growth at 10 µM (Hs-578T) [%] | inhibition of growth at 10 µM (MDA-MB-435) [%] | inhibition of growth at 10 µM (CCRF-CEM) [%] | inhibition of growth at 10 µM (TK-10) [%] | inhibition of growth at 10 µM (COLO 205) [%] | inhibition of growth at 10 µM (SNB-19) [%] | inhibition of growth at 10 µM (HT-29) [%] | inhibition of growth at 10 µM (NCI-H522) [%] | inhibition of growth at 10 µM (SW-620) [%] | inhibition of growth at 10 µM (NCI-H226) [%] | inhibition of growth at 10 µM (MCF7) [%] | inhibition of growth at 10 µM (MOLT-4) [%] | inhibition of growth at 10 µM (T47D) [%] | further results
1 | O=C1SC2=Nc3c(sc4ccc(Cl)cc34)C(c3ccc4ccccc4c3)N2C1=O (stereo not drawn) | 13.1 | -2.51 | 17.1 | 26.4 | -0.63 | 11.2 | 14.5 | 1.4 | 2.92 | -5.01 | -28.7 | -2.01 | 2.61 | -2.87 | 16.6 | 4.8 | 24 | 68.7 | 11.9 | 24.5 | inhibition of growth at 10 µM (DU-145): -1.57%; inhibition of growth at 10 µM (A549): 1.04%; inhibition of growth at 10 µM (UACC-62): 34.2%; inhibition of growth at 10 µM (SF-539): 5.81%; inhibition of growth at 10 µM (LOX IMVI): 1.85%; inhibition of growth at 10 µM (IGROV-1): 26.4%; inhibition of growth at 10 µM (Malme-3M): 12.9%; inhibition of growth at 10 µM (BT-549): -19.9%; inhibition of growth at 10 µM (SN12C): 13.2%; inhibition of growth at 10 µM (SK-MEL-28): -13.2%; inhibition of growth at 10 µM (OVCAR-5): -1.12%; inhibition of growth at 10 µM (OVCAR-3): 9.4%; inhibition of growth at 10 µM (EKVX): 12.9%; inhibition of growth at 10 µM (OVCAR-4): 23.6%; inhibition of growth at 10 µM (HCC 2998): -27.7%; inhibition of growth at 10 µM (CAKI-1): 30.1%; inhibition of growth at 10 µM (NCI-H322M): 13.9%; inhibition of growth at 10 µM (SNB-75): 5.78%; inhibition of growth at 10 µM (HCT-15): 7.44%
2 | N=C1Nc2c(sc3ccc(Cl)cc23)C(c2ccc3ccccc3c2)N1 (stereo not drawn) | 6.65 | -3.49 | -10 | -0.62 | 8.66 | -6.39 | 25.9 | 14.6 | -4.57 | -3.9 | 30.2 | -6.53 | 18.1 | -3.45 | -6.52 | 0.99 | 6.58 | 6.28 | 10.9 | -15.3 | inhibition of growth at 10 µM (DU-145): 12.1%; inhibition of growth at 10 µM (A549): 7.42%; inhibition of growth at 10 µM (UACC-62): 6%; inhibition of growth at 10 µM (SF-539): -2.62%; inhibition of growth at 10 µM (LOX IMVI): 6.47%; inhibition of growth at 10 µM (IGROV-1): -4.93%; inhibition of growth at 10 µM (Malme-3M): 1.8%; inhibition of growth at 10 µM (BT-549): 5.47%; inhibition of growth at 10 µM (SN12C): -25.1%; inhibition of growth at 10 µM (SK-MEL-28): 2.06%; inhibition of growth at 10 µM (OVCAR-5): -3.77%; inhibition of growth at 10 µM (OVCAR-3): 8.92%; inhibition of growth at 10 µM (EKVX): 1.13%; inhibition of growth at 10 µM (OVCAR-4): 6.63%; inhibition of growth at 10 µM (HCC 2998): 10.9%; inhibition of growth at 10 µM (CAKI-1): -12.5%; inhibition of growth at 10 µM (NCI-H322M): 6.59%; inhibition of growth at 10 µM (SNB-75): 0.66%; inhibition of growth at 10 µM (HCT-15): 3.37%
